From patent US9737525B2, “Small molecule activators of NRF2 pathway” (The General Hospital Corporation, priority 2013, dated 2017)
Counter-ions that a name gives are not always drawn.

Key:
[1] = molecular target: human recombinant SIRT2 deacetylase (Homo sapiens (Human), UniProt Q8IXJ6); test: Sirtuin biochemical deacetylation assay, SIRT2
Experimental: Modulation of sirtuin activity by compounds was assessed using the Flour de Lys fluorescent biochemical assay in a 96-well format as described (Outeiro et al., 2007). The deacetylation reaction was performed at 37° C. for an hour in the presence of human recombinant enzymes: SIRT1 (BioMol-SE-239) 1 unit/per reaction, SIRT2 (BioMol-SE-251) 5 units/per reaction, or SIRT3 (BioMol-SE-270) 5 units/per reaction, compound of interest, standard buffer, 50 μM substrate, and 500 μM NAD^+ according to the manufacturer's protocol. […]

NQO1 = test: Quantitative NQO1 inducer bioassay in Hepa1c1c7 cells; assay type: cell-based, murine; settings: for EC (2-fold NQO1 activity): Mus musculus, Hepa-1c1c7, Table 3, Concentration which Doubles the specific activity of NQO1, read-out: NQD1 CD; for EC (2-fold NQO1 activity) / CD value (Concentration which Doubles the specific activity of NQO1): 48 hr exposure; for Effect of GSH pre-incubation on NQO1 inducer potency: 1 mM GSH at 37° C. for 30 min before cell treatment; for CD value (Concentration which Doubles the specific activity of NQO1): Hepa1c1c7 cells
Experimental: Cells grown in 96-well plates were exposed to serial dilutions of each compound for 48 hr, and the NQO1 enzyme activity was determined in cell lysates. Results are shown as average values of 8 replicate wells. The standard deviation in each case was less than 5%.
Next, using a quantitative NQO1 inducer bioassay in murine Hepa1c1c7 cells and the CD value (Concentration which Doubles the specific activity of NQO1) as a measure of potency (see Table 2), the activities of the MIND4 analogs were tested and ranked.
Inducer potency was quantified by use of the NQO1 bioassay in Hepa1c1c7 cells as described [Prochaska, 1988]. To examine the effect of GSH on inducer potency, compounds were incubated in cell culture medium containing 1 mM GSH at 37° C. for 30 min before cell treatment.

[2] = system: NRF2-responsive proteins NQO1 and GCLM; test: Induction of NQO1 and GCLM proteins in differentiated ST14A cells (immunoblotting); assay type: cell-based, rat; settings: differentiated HD mutant and wild type ST14A cells, 24 hours
Experimental: (§1) To assess protein levels, cell extracts were prepared from cells washed with PBS and lysed with buffer containing 2% SDS, Complete EDTA-free Protease Inhibitor Cocktail (Roche) and 1 mM phenylmethylsulfonyl fluoride. To prepare brain extracts for analysis, frozen mouse cortical tissues were homogenized in PBS containing protease inhibitors with an Kontes Pellet Pestle (Kimble/Kontes). They were later sonicated and lysed overnight at 4° C. in 2× volume of lysis buffer containing 2% SDS and protease inhibitors. Protein concentrations in ST14A cell extracts and homogenized cortical tissues were evaluated using a BCA analysis kit and normalized. Samples were prepared in a SDS buffer containing DTT and separated on bis-acrylamide protein gels via electrophoresis and transferred onto a 0.2 μm PVDF membrane). Membranes were probed for NQO1 (Sigma N5288, 1:1,000), GCLM, (Abcam ab126704, 1:800), SIRT2 (Sigma S8447, 1:2,500), histone H3 (Cell Signaling 4499, 1:2,000), acetylated H3 (K56) (Millipore 04-1135, 1:500), TNFα (Abcam ab1793, 1:1,500), GADPH (Millipore MAB374, 1:10,000), actin (Sigma A2066, 1:1250), α-tubulin (Sigma T6074, 1:20,000), and acetylated α-tubulin (Sigma T6793, 1:2,500) overnight in 5% milk in PBST at 4° C. on a rocker. Membranes were thrice washed in PBST for 15 min on a shaker and incubated in either an anti-rabbit-HRP (Bio-Rad 170-5046, 1:10,000) or anti-mouse-HRP (Sigma A3682, 1:4,000) secondary solution as appropriate in 3% milk in PBST for 1 hr at room temperature on a rocker. After four washes of 15 min in PBST on a shaker, blots were visualized using SuperSignal West Pico Chemiluminescent Substrate (Pierce 34080) or SuperSignal West Dura Extended Duration Substrate (Thermo 34075) and exposed on Scientific Imaging Film (Kodak 864 6770).
Compound bioactivity was tested in the rat embryonic striatal cell lines ST14A, which stably express either a mutant expanded repeat (128Q) or wild type (26Q) 546 amino acid huntingtin (HTT) fragment (a generous gift of E. Cattaneo) (Ehrlich et al., 2001) ST14A cells were propagated at 33° C. in the presence of serum. To induce neuronal differentiation, cells were serum deprived and cultured at 37° C. in the presence of N2 supplement. Cells were treated with compounds concurrently with induction of neuronal differentiation for 24 hours, as described (Quinti et al., 2010).
The NRF2 activation properties of further MIND4 structural analogs with variable potencies of SIRT2 inhibition were tested as described previously (see Table 1) Changes in expression of the canonical NRF2-responsive proteins NQO1 and GCLM, the transcription of which was induced by MIND4, was selected as a readout of pathway activation. Protein levels of NQO1 and GCLM were examined by immunoblotting in compound treated mutant HD and wild-type ST14A cells. […] This hypothesis was tested using a second panel of MIND4 analogs (see Table 3).

NRF2/KEAP1 in MEFs = test: NQO1 and NRF2 levels in mouse embryonic fibroblasts (MEFs), western blot; assay type: cell-based; settings: wild-type MEFs, 5 hr exposure
Experimental: Mouse embryonic fibroblasts (MEFs) from wild-type (WT), NRF2-knockout (NRF2-KO) or KEAP1-knockout (KEAP1-KO) mice, were cultured in plastic dishes (Invitrogen) coated for 30 min with 0.1% (w/v) gelatin before use. The cell culture medium was Iscoves Modified Dulbecco's Medium (with L-glutamine) supplemented with human recombinant epidermal growth factor (10 ng/mL), 1× insulin/transferrin/selenium, and 10% (v/v) heat-inactivated FBS, all from Invitrogen. Cells were maintained at 5% CO2 in air at 37° C. For experiments, cells (250,000 per well) were grown for 24 hr on 6-well plates, and then treated with solvent control (0.1% DMSO, v/v) or compounds for either 5 hr or 24 hr. For western blot analysis, cells were washed twice with ice-cold phosphate buffered saline (PBS) and lysed in 150 μl of RIPA buffer (50 mM Tris-Cl pH 7.5, 150 mM NaCl, 0.5% sodium deoxycholate, 1% NP-40, 0.1% SDS and 1 mM EDTA), containing 1 protease inhibitor cocktail tablet (Roche) per 10 ml of buffer. Cell debris were removed by centrifugation at 16,300×g for […] at 4° C., and protein concentrations were determined by the BCA assay (Thermo). Proteins were resolved by SDS/PAGE, transferred to immobilon-P membranes, and probed with specific antibodies against NQO1 (1:1000) or NRF2 (1:1000). Equal loading was confirmed by probing the blots with an antibody against β-actin (mouse monoclonal, 1:10000), from Sigma, Dorset, United Kingdom.
For nuclear-cytoplasmic separation, WT MEFs (500,000 per dish) were grown for 24 hr on 6-cm plates, and then treated with solvent control (0.1% DMSO, v/v) or 0.5 μM MIND4-17. At the end of each treatment time, cells were placed on ice and washed twice with ice-cold PBS and subsequently lysed in buffer A [10 mM KCl, 5 mM MgCl2, 50 mM Tris-HCl (pH 7.5), 0.5% Nonidet P-40 (Roche), 1 mM dithioretitol (DTT) (Sigma), containing one protease inhibitor tablet and one phosphatase inhibitor tablet (both from Roche) per each 10 ml of buffer]. The lysates were subjected to centrifugation (Spectrafuge 24D, Labnet) at 1,000×g for 5 min at 4° C. The supernatant (cytoplasmic fraction) was transferred to a fresh Eppendorf tube. The pellet (nuclear fraction) was washed three times in buffer A before being dissolved in buffer B [2% SDS, 150 mM NaCl, 65 mM Tris-HCl (pH 8.0)] and sonicated for 30 sec. Finally, the lysates were subjected to western blot analysis. The blots were probed with antibodies against GAPDH (rabbit polyclonal, 1:5000) and Lamin A/C (rabbit polyclonal, 1:1000, Gene Tex, Calif., United States of America) to confirm fraction purity and equal protein loading.

[3] = system: α-tubulin K40 and histone H3 acetylation; test: Acetylation of SIRT2 substrates in wild type primary cortical neurons; assay type: cell-based, mouse; set-up: α-Tubulin acetylation: dose or concentration left out as unconfirmed; settings: primary neurons
Experimental: as §1
Based upon the robust neuroprotection observed in HD model systems expressing both mutant HTT fragments and full-length mutant HTT, verification of the bioactivity of MIND4 as SIRT2 inhibitor in primary neurons was sought. […]

Sequence of human recombinant SIRT2 deacetylase (Q8IXJ6 whole entry): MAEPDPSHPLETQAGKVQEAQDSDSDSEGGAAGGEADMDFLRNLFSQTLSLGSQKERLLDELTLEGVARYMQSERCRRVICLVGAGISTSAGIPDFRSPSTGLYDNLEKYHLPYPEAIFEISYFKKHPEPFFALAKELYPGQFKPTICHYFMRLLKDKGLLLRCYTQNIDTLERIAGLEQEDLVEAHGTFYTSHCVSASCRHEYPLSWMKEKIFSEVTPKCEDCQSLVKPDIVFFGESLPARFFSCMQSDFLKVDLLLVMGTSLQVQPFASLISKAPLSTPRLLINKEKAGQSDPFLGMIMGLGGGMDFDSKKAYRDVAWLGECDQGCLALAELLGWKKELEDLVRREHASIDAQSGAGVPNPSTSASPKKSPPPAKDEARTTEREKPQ

IC50 ([1]; Table 1)	IC50 ([1]; Table 3)	Structure (SMILES)	EC (2-fold NQO1 activity) (NQO1)	further results
12 µM		Clc1ccc(-n2c(COc3cccc4ccccc34)nnc2SCc2ccccc2)cc1 [MIND4-2]		
4.5 µM	4.5 µM	c1ccc(CSc2nnc(COc3cccc4ccccc34)n2-c2ccccc2)cc1 [MIND4-11]	> 10 µM	
9 µM		c1ccc(CSc2nnc(COc3cccc4cccnc34)n2-c2ccccc2)cc1 [MIND4-12]		
	> 50 µM	O=[N+]([O-])c1ccc(Sc2nnc(COc3ccccc3)[nH]2)nc1 [MIND4-17-3]	7.5 µM	
	> 50 µM	O=[N+]([O-])c1ccc(Sc2nnc(Cc3ccccc3)n2-c2ccccc2)nc1 [MIND4-17-15]	0.3 µM	
	7.5 µM	O=[N+]([O-])c1ccc(Sc2nnc(-c3ccc(Cl)cc3)n2-c2ccccc2)nc1 [MIND4-17-33]	0.3 µM	Effect of GSH pre-incubation on NQO1 inducer potency (NQO1): significantly affected by pre-incubation with GSH; CD value (Concentration which Doubles the specific activity of NQO1) (NQO1): 0.3 µM; Induction of NRF2-responsive proteins NQO1 and GCLM [2]: potent induction of NQO1 protein
	0.75 µM	O=[N+]([O-])c1cnc(Sc2nnc(-c3ccc(Cl)cc3)n2-c2ccccc2)c(Br)c1 [MIND4-17-56]	2.5 µM	Effect of GSH pre-incubation on NQO1 inducer potency (NQO1): much more modest; CD value (Concentration which Doubles the specific activity of NQO1) (NQO1): 2.5 µM; Induction of NRF2-responsive proteins NQO1 and GCLM [2]: lower potency in its ability to induce NQO1
7 µM		c1ccc(CSc2nnc(COc3ccccc3)n2-c2ccccc2)cc1 [MIND4-19]		
5 µM		Brc1cccc(CSc2nnc(COc3ccccc3)n2-c2ccccc2)c1 [MIND4-20]		
10 µM	10 µM	O=[N+]([O-])c1ccc(CSc2nnc(COc3ccccc3)n2-c2ccccc2)cc1 [MIND4-21]		
6 µM		c1ccc(CSc2nnc(COc3cccc4ccccc34)n2Cc2ccccc2)cc1 [MIND4-22]		
9 µM		COc1ccc(CSc2nnc(COc3cccc4ccccc34)n2Cc2ccccc2)cc1 [MIND4-23]		
	7.5 µM	O=[N+]([O-])c1ccc(Sc2nnc(-c3ccccc3)n2-c2ccccc2)c2ncccc12 [MIND4A]	1 µM	SIRT2 inhibition ([1]; dose-response): lower potency of SIRT2 inhibition; Effect of GSH pre-incubation on NQO1 inducer potency (NQO1): much more modest; CD value (Concentration which Doubles the specific activity of NQO1) (NQO1): 1 µM; Induction of NRF2-responsive proteins NQO1 and GCLM [2]: higher potency induction
	> 50 µM	Cn1cnnc1Sc1ccc([N+](=O)[O-])c2cccnc12 [MIND4B]	2 µM	
	> 20 µM	O=[N+]([O-])c1ccc(Sc2nnc(COc3ccccc3)n2-c2ccccc2)c2cccnc12 [MIND4C]	5 µM	Induction of NRF2-responsive proteins NQO1 and GCLM [2]: weaker activation; Accumulation of total NRF2 protein (NRF2/KEAP1 in MEFs): to much lesser extent
		COC(=O)/C=C/C(=O)OC [dimethyl fumarate, reference compound]		CD value (Concentration which Doubles the specific activity of NQO1) (NQO1): 9 µM; Induction of NRF2-responsive proteins NQO1 and GCLM [2]: dose-dependent induction of NQO1 protein
		C[S+]([O-])CCCCN=C=S (stereo not drawn) [sulforaphane, reference compound]		CD value (Concentration which Doubles the specific activity of NQO1) (NQO1): 0.18 µM; Accumulation of total NRF2 protein (NRF2/KEAP1 in MEFs): readily detectable
		O=C(CCCCCCC(=O)Nc1ccc([C@H]2O[C@@H](CSc3nc(-c4ccccc4)c(-c4ccccc4)o3)C[C@@H](c3ccc(CO)cc3)O2)cc1)NO [tubacin, reference compound]		α-Tubulin acetylation [3]: significantly increased α-tubulin acetylation
